Series [1] deals with mice. The experiment in a line: animal or person. The conditions noted are these: Mus musculus, sc, 5 min, read-out: ED50 Hot Plate. It counts as in vivo, mouse. On the procedure:
Mice were placed into a 10 cm wide glass cylinder on a hot plate (Thermojust Apparatus) maintained at 55.0° C. Two control latencies at least […] apart were determined for each mouse. The normal latency (reaction time) was 8 to 12 sec. Antinociceptive response was calculated as percent maximum possible effect (% MPE), where % MPE=[(test−control)/40−control)×100]. The reaction time was scored when the animal jumped or licked its paws.

Series [2] deals with mice. Put plainly: animal or person. It counts as in vivo, mouse. The conditions noted are these: Mus musculus, sc, read-out: ED50 Spontaneous Activity. On the procedure: Interruptions of the photocell beams (two banks of eight cells each) were then recorded for the next 10 min. Data were expressed as number of photocell interruptions.
In series [3] the test system is mice. In kind it is in vivo, mouse. The conditions noted are these: @ 100 μg/kg. On the procedure: Mice were placed into a 10 cm wide glass cylinder on a hot plate (Thermojust Apparatus) maintained at 55.0° C. Two control latencies at least […] apart were determined for each mouse. […] Antinociceptive response was calculated as percent maximum possible effect (% MPE), where % MPE=[(test−control)/40−control)×100]. The reaction time was scored when the animal jumped or licked its paws.
(§1) Table 6 provides data for a number of compounds of the invention that were tested according to the assays described above.

Series [4] concerns mice. Put plainly: animal or person. It counts as in vivo, mouse. The conditions noted are these: Mus musculus, sc, 0.5 h, read-out: ED50 Hypothermia. As for the experimental part: Rectal temperature was measured by a thermistor probe (inserted 24 mm) and digital thermometer (Yellow Springs Instrument Co., Yellow Springs, Ohio). […] The difference in rectal temperature before and after treatment was calculated for each mouse. The ambient temperature of the laboratory varied from 21-24° C. from day to day.

Series [5] concerns mice. It counts as in vivo, mouse. The note with it: mice; for Tail Flick, % effect at dose: @ 100 μg/kg. On the procedure: (§2) Antinociception was assessed by the tail-flick method of F. E. D'Amour and D. L. Smith (J. Pharmacol. Exp. Ther. 1941, 72, 74-79). A control response (2-4 sec) was determined for each mouse before treatment, and a test latency was determined after drug administration. In order to minimize tissue damage, a maximum latency of 10 sec was imposed. Antinociceptive response was calculated as percent maximum possible effect (% MPE), where % MPE=[(test−control)/(10−control)]×100. Groups of eight to twelve animals were used for each dose and for each treatment. […] Eight to twelve mice were treated per dose and a minimum of four doses were performed for dose-response curve determination.
as §1

Series [6] concerns the target homomeric nAChRs containing the alpha7 subunit (α7) (Rattus norvegicus (Rat), UniProt Q05941). Put plainly: biochemical. In kind it is binding.
For series [7], the system named is mice. The experiment in a line: animal or person. In kind it is in vivo, mouse. The conditions noted are these: Mus musculus, sc, 5 min, read-out: ED50 Tail Flick. As for the experimental part:
as §2

10 compounds from patent publication US9284322B2, “Nicotinic receptor compounds” (priority 2010, dated 2016) can be followed below.

In general, melting point refers to the temperature, or range, at which the solid turns liquid. Broadly, the ED50 is the midpoint of the dose-response relation. By Ki is commonly meant the dissociation constant of the complex between target and ligand, obtained from inhibition or displacement. Higher therefore signals weaker binding.

Structures can show the parent of a compound that is named as a salt. Where two headings read alike, the source gives them in different places.

Sequence of homomeric nAChRs containing the alpha7 subunit (α7) (Q05941 23-502 limits assumed): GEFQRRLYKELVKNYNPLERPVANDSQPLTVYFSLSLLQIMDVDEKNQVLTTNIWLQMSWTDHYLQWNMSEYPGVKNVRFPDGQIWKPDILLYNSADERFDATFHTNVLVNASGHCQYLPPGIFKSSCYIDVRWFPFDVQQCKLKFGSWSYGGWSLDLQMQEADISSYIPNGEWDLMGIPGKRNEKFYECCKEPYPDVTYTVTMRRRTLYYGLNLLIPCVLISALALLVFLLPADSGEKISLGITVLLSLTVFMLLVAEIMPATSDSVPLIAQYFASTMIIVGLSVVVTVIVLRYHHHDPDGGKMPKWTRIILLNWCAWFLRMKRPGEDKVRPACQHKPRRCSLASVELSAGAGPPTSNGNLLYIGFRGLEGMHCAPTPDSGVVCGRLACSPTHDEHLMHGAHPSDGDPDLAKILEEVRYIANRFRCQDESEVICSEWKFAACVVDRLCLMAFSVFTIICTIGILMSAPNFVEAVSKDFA

As for `Fc1cc(-c2cncc(C3CC4CCC3N4)c2)ccn1` (stereo not shown) (as salt: fumarate), the melting point fell in the range of 210 to 214 °C.

As for `COc1cc(-c2cncc(C3CC4CCC3N4)c2)ccn1` (stereo not shown) (as salt: fumarate), the melting point is 160 to 164 °C.

`Fc1ncc(C2CC3CCC2N3)cc1-c1cncnc1` (stereo not drawn) (as salt: fumarate) [2-exo-2′-Fluoro-3′-(pyrimidin-5-yl)deschloroepibatidine fumarate] gave a melting point of 160 to 163 °C.

Compound `Clc1ncc(C2CC3CCC2N3)cc1-c1cncnc1` (stereo not drawn) (as salt: fumarate) [Cl, 2-exo-2′-Chloro-3′-(pyrimidin-5-yl)deschloroepibatidine fumarate] displayed a melting point of 199 to 203 °C.

In the case of `c1ncc(-c2cncc(C3CC4CCC3N4)c2)cn1` (stereo not drawn) (as salt: fumarate) [H, 2-exo-3′-(Pyrimidin-5-yl)deschloroepibatidine fumarate], the melting point was 172 to 176 °C.

For the compound `Clc1ccc(C2CC3CCC2N3)cn1` (single isomer, unassigned; (-)) [(−)-epibatidine, reference compound], the ED50 in the series on mice [1] is 0.004 mg/kg.

As for `Clc1ncc(C2CC3CCC2N3)cc1-c1cncnc1` (stereo not drawn) [Cl, 2-exo-2′-Chloro-3′-(pyrimidin-5-yl)deschloroepibatidine fumarate], the ED50 in the series with mice [2] came to 0.027 mg/kg; with mice [4] it was 0.03 mg/kg; with mice [1] it was 0.25 mg/kg; with mice [7], 0.28 mg/kg. Also, the “Hot Plate, % effect at dose” value with mice [3] is given as 2% @ 100. In addition, the “Tail Flick, % effect at dose” value in the series with mice [5] is 5% @ 100. Moreover, the Ki in series [6] was determined as 170 ± 64 nM.

Consider `Fc1ncc(C2CC3CCC2N3)cc1-c1cncnc1` (stereo not drawn) [F, 2-exo-2′-Fluoro-3′-(pyrimidin-5-yl)deschloroepibatidine fumarate], for which the ED50 is 0.15 mg/kg with mice [2], 0.25 mg/kg in the series on mice [4], 1.2 mg/kg in the series on mice [1] and 2.15 mg/kg with mice [7]. Moreover, the “Hot Plate, % effect at dose” value with mice [3] turned out to be 33% @ 100. Moreover, the “AD50 Tail Flick” value in the series on mice [5] (antagonist test) amounted to 0.00024 mg/kg. Affinity in series [6] was put at a Ki of 1930 nM.

As for `c1ncc(-c2cncc(C3CC4CCC3N4)c2)cn1` (stereo not drawn) [H, 2-exo-3′-(Pyrimidin-5-yl)deschloroepibatidine fumarate], the ED50 came out at 0.32 mg/kg in the series on mice [2], 0.6 mg/kg in the series on mice [4], 1.63 mg/kg in the series on mice [1] and 1.5 mg/kg in the series with mice [7]. Further, the “Hot Plate, % effect at dose” value in the series with mice [3] is reported as 0% @ 100. In the series with mice [5], the “Tail Flick, % effect at dose” value is reported as 15% @ 100. This compound also had a Ki in series [6] of 32.5 ± 1.3 nM.

Take `CN1CCCC1c1cccnc1` (stereo not shown) [Nicotine, reference compound]: the ED50 amounted to 0.5 mg/kg in the series with mice [2], 1 mg/kg in the series on mice [4], 0.65 mg/kg in the series on mice [1] and 1.3 mg/kg in the series with mice [7].
